The values below are quoted from earlier work in patent US20220160670A1, “COMPOSITION COMPRISING L-CARNITINE FOR THE TREATMENT OF MALE INFERTILITY” (LABORATOIRE DES GRANIONS, priority 2017, published 2022).

Data set [1] relates to total forward motility of spermatozoa. The settings on record: treatment of 6 months; 3 g/day L-carnitine, 3 g/day L-acetylcarnitine, or 2 g/day + 1 g/day combined.
Data set [2] deals with number and total forward motility of spermatozoa. The settings on record: 2 g/day for 2*2 months; patients with 10 to 20 million/ml and total mobility 10% to 30% at inclusion.

On to `C[N+](C)(C)C[C@H](O)CC(=O)[O-]` [L-carnitine], for which the “effect on total forward motility of spermatozoa” value (“effect on total forward motility” below) in data set [1] is “significantly increases”. Also, in data set [2], the “effect on number of spermatozoa” value is on record as “increase” and the “effect on total forward motility” value is given as “increase”.
With `CC(=O)O[C@H](CC(=O)[O-])C[N+](C)(C)C` [L-acetylcarnitine], the “effect on total forward motility” value in data set [1] is “significantly increases”.
